Here are results for eight molecules from ChEMBL document CHEMBL1201862, “PubChem BioAssay data set” (2004).

SMILES strings stand for the structures.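 The compound was tested at five concentrations on cells cultured in 96-well plates, with a 48-hour exposure period. At the GI50, growth is halved.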 Calls of active or inactive are those of the source. Cut-off read from the data, not from the text of the source: active = GI50 up to about 1.1 µM and inactive = higher.

Among the test systems are A549; ACHN; CCRF-CEM; DLD-1; DMS-273; HCC 2998; HCT-116; HL-60; HT-29; M14; NCI-H226; NCI-H23; NCI-H460; SK-MEL-28; SK-MEL-5; SN12C; SNB-75; U-251.
Assay in all cases: growth of human tumour cells (NCI), 48 h

Regarding `CC1=CC=NN2C(=O)[C@H](C)C2C1` (stereo partly drawn), the GI50 in the test with A549, in the test with ACHN, with CCRF-CEM, in the test on DLD-1, in the test with DMS-273 and with HCC 2998 was > 100 µM (inactive) in each case. For the same molecule, the GI50 with HCT-116, in the test on HL-60, in the test on HT-29, in the test on M14, in the test with NCI-H226 and in the test on NCI-H23 was > 100 µM (inactive) each time. The GI50 in the test with NCI-H460, in the test on SK-MEL-28, in the test on SK-MEL-5, in the test with SN12C, in the test on SNB-75 and in the test with U-251 was > 100 µM (inactive) throughout.
Regarding `O=C(Cc1nc2ccccc2s1)Nc1ccc(Cl)cc1`, the GI50 was 97.9 µM (inactive) in the test on A549; 56.5 µM (inactive) with ACHN; > 100 µM (inactive) in the test with CCRF-CEM; 91.6 µM (inactive) in the test on DLD-1; 84.7 µM (inactive) in the test with DMS-273; > 100 µM (inactive) in the test with HCC 2998. In addition, the GI50 in the test on HCT-116 was > 100 µM (inactive); in the test with HL-60, > 100 µM (inactive); with HT-29, > 100 µM (inactive); in the test on M14 it was 77.1 µM (inactive); with NCI-H226 it was > 100 µM (inactive); with NCI-H23, > 100 µM (inactive). Further, the GI50 was > 100 µM (inactive) with NCI-H460; > 100 µM (inactive) in the test on SK-MEL-28; 83.8 µM (inactive) with SK-MEL-5; > 100 µM (inactive) with SN12C; 91.6 µM (inactive) in the test on SNB-75; > 100 µM (inactive) in the test on U-251.
On to `Fc1ccccc1C1SCc2nc3ccccc3n21` (stereo not drawn), for which the GI50 is 36.5 µM (inactive) in the test on A549; 38.1 µM (inactive) in the test on ACHN; 43.1 µM (inactive) in the test with CCRF-CEM; 53.7 µM (inactive) in the test on DLD-1; 31.3 µM (inactive) in the test with DMS-273; 75.2 µM (inactive) in the test with HCC 2998. For the same molecule, the GI50 is 38.5 µM (inactive) in the test on HCT-116; 11.9 µM (inactive) in the test on HL-60; > 100 µM (inactive) with HT-29; 76.7 µM (inactive) in the test on NCI-H226; 33.2 µM (inactive) in the test with NCI-H23; 47.9 µM (inactive) in the test with NCI-H460. In addition, the GI50 is > 100 µM (inactive) in the test on SK-MEL-28, 18.8 µM (inactive) in the test with SK-MEL-5, 79.6 µM (inactive) in the test with SN12C and 72.8 µM (inactive) with SNB-75.
As for `CCN(CC)CCCC(C)Nc1c(Sc2cnc3cc(Cl)ccc3c2NC(C)CCCN(CC)CC)cnc2cc(Cl)ccc12` (stereo not drawn), the GI50 in the test with A549 is 1.68 µM (inactive); in the test with ACHN it was 1.98 µM (inactive); with CCRF-CEM, 2.2 µM (inactive); with DLD-1, 1.91 µM (inactive); in the test on DMS-273 it was 1.72 µM (inactive); with HCC 2998, 0.269 µM (active). For the same molecule, the GI50 is 1.37 µM (inactive) in the test with HCT-116; 1.82 µM (inactive) in the test with HL-60; 1.65 µM (inactive) in the test with HT-29; 1.81 µM (inactive) in the test on M14; 1.76 µM (inactive) in the test with NCI-H226; 3.3 µM (inactive) with NCI-H23. Also, the GI50 in the test with NCI-H460 is 1.74 µM (inactive); in the test with SK-MEL-28, 1.86 µM (inactive); in the test with SN12C, 1.88 µM (inactive); with SNB-75, 1.51 µM (inactive); in the test with U-251, 1.63 µM (inactive).
As for `CNCCCCN(C)/[N+]([O-])=N\O`, the GI50 in the test with A549, with ACHN, in the test on CCRF-CEM, in the test with DLD-1, with DMS-273 and in the test with HCC 2998 was > 100 µM (inactive) each time. Moreover, the GI50 in the test with HCT-116, with HL-60, in the test with HT-29, with M14, in the test with NCI-H226 and in the test with NCI-H23 was > 100 µM (inactive) throughout. Also, the GI50 in the test on NCI-H460 was > 100 µM (inactive); in the test on SK-MEL-28, > 100 µM (inactive); in the test with SK-MEL-5 it was > 100 µM (inactive); in the test on SN12C it was > 100 µM (inactive); in the test on SNB-75, 49.2 µM (inactive); in the test on U-251, > 100 µM (inactive).
Take `COc1nc(NC2OC(COC(C)=O)C(OC(C)=O)C(OC(C)=O)C2OC(C)=O)c(/N=C(\C)C(C)=O)c(=O)n1C` (stereo not drawn): the GI50 with A549 is > 100 µM (inactive); in the test with ACHN, > 100 µM (inactive); in the test on CCRF-CEM, > 100 µM (inactive); with DLD-1 it was > 100 µM (inactive); with DMS-273, > 10 µM (inactive); with HCC 2998, > 100 µM (inactive). For the same molecule, the GI50 in the test with HCT-116, in the test with HL-60, in the test with HT-29, with M14, in the test on NCI-H226 and in the test with NCI-H23 was > 100 µM (inactive) in each case. Further, the GI50 with NCI-H460, in the test on SK-MEL-5, in the test with SN12C, in the test with SNB-75 and in the test on U-251 was > 100 µM (inactive) throughout.
`C[N+]1(C)CCCC1C(=O)[O-]` (stereo not drawn): the GI50 with A549, with ACHN, in the test on CCRF-CEM, in the test with DLD-1, in the test with DMS-273 and with HCC 2998 was > 100 µM (inactive) throughout. For the same molecule, the GI50 with HCT-116, in the test with HL-60, in the test on HT-29, in the test on M14, in the test on NCI-H226 and in the test on NCI-H23 was > 100 µM (inactive) in each case. Further, the GI50 in the test with NCI-H460, in the test on SK-MEL-28, with SN12C, in the test on SNB-75 and in the test on U-251 was > 100 µM (inactive) throughout.
Turning to `N#CC1CC2(CCN1C(=O)c1ccccc1)OCCO2` (stereo not drawn), the GI50 in the test on A549, with ACHN, in the test on CCRF-CEM, in the test with DLD-1, in the test with DMS-273 and in the test with HCC 2998 was > 100 µM (inactive) each time. Besides, the GI50 with HCT-116, with HL-60, with HT-29, with M14, in the test on NCI-H226 and with NCI-H23 was > 100 µM (inactive) each time. The GI50 in the test with NCI-H460, in the test with SK-MEL-5, with SN12C, with SNB-75 and with U-251 was > 100 µM (inactive) each time.
